Laboratory results as given in paper PMC11909975, “Spectroscopic, docking, antiproliferative, and anticancer activity of novel metal derivatives of phenylacetohydrazide Schiff base on different human cancer cell lines” (BMC Chemistry, 2025).
Values after ≈ are worked out from the molar mass of the structure shown.

What was measured:
Type in all cases: cell-based
[1] = tested on: HSF normal human skin fibroblast; test: MTT cytotoxicity assay on normal skin fibroblasts; conditions: for SI (selectivity index), HSF: IC50 normal cells (HSF) / IC50 HSF
Procedure: (§1) Cells (HeLa, cervical cancer cells; MDA-MB-231, breast cancer cells; A375, skin cancer cells; A549, lung cancer cells; and HSF, normal skin fibroblasts cells) were supplied from Nawah Scientific (Cairo, Egypt). The cells were grown in DMEM medium supplemented with 10% fetal bovine serum (Gibco, Life Technologies Inc., UK) with 1% penicillin/streptomycin solution (Gibco). Cells were maintained at 37°C with 5% CO2.
(§2) MTT in vitro cytotoxic assay assesses the metabolic activity of viable cells through the reduction of the water-soluble yellow dye by mitochondrial succinate dehydrogenase into the insoluble purple formazan. In brief, cyanochalcone derivatives were dissolved in 100% dimethyl sulphoxide (DMSO, Serva, Heidelberg, Germany) and incubated with cells at the desired concentrations (0, 6.25, 12.5, 25, 50, 100, and 200 μM) for 48 h with the corresponding vehicle as control. 5-Florouracil (5FU) was used as a positive control. Following incubation, old media were discarded and MTT solution (50 μl, 0.5 mg/ml) was added. After 4 h of incubation, the insoluble formed formazan was dissolved in DMSO (100 μl) with a shaking plate for 15 min in a dark place. The absorbance readings were taken at 570 nm by an ELISA reader. Relative cell viability was calculated as a percentage of control untreated cells. The assay was done in four replicates. The dose–response curve was plotted using GraphPad Prism 8, and the values of IC50 (half-maximal inhibitory concentration) were determined using non-linear regression analysis. Finally, the selectivity index was calculated by dividing the IC50 for normal cells by the IC50 of cancer cells.
(§3) To evaluate the potential usefulness of the Schiff base ligand (H2L) and the reported complexes (Fe, Zn, Cd, Pt) as antitumor agents, five human cell lines (normal Cells; HSF, human colorectal cancer cell line; HCT119, liver carcinoma cell line; HEPG2, human triple-negative breast cancer; MDA, human lung cancer cell line; A549) were treated by the compounds and compared with cis-platin activity as a standard. The IC50 values (concentration that produces 50% inhibition of cell growth) and selectivity index of the H2L ligand, the metal complexes, and cis-platin were tabulated in Table 4.

[2] = tested on: HepG2 (Human Liver cancer cell line); test: MTT cytotoxicity assay on liver cancer cells; conditions: for SI (selectivity index), HEPG2: IC50 normal cells (HSF) / IC50 HEPG2
Procedure: as §1, §2, §3

[3] = tested on: MDA (Human Breast cancer cell line); test: MTT cytotoxicity assay on triple-negative breast cancer cells; conditions: for SI (selectivity index), MDA: IC50 normal cells (HSF) / IC50 MDA
Procedure: as §1, §2, §3

[4] = tested on: HCT119 (Human Colorectal cancer cell line); test: MTT cytotoxicity assay on colorectal cancer cells; conditions: for SI (selectivity index), HCT119: IC50 normal cells (HSF) / IC50 HCT119
Procedure: as §1, §2, §3

[5] = tested on: A549 (Human Lung cancer cell line); test: MTT cytotoxicity assay on lung cancer cells; conditions: for SI (selectivity index), A549: IC50 normal cells (HSF) / IC50 A549
Procedure: as §1, §2, §3

[6] = HEPG2 liver carcinoma cells, MTT, 48 h
[7] = MDA triple-negative breast cancer cells, MTT, 48 h
[8] = HSF normal skin fibroblasts, MTT, 48 h
[9] = HCT119 colorectal cancer cells (HCT116 in abstract), MTT, 48 h
[10] = A549 lung cancer cells, MTT, 48 h

C1=[N+]2N=C(Cc3ccccc3)[O][Zn-2]23[O+](c2ccc4ccccc4c21)[Zn-2]12[O]C(Cc4ccccc4)=N[N+]1=Cc1c(ccc4ccccc14)[O+]32.CC(=O)O.CC(=O)O (stereo not shown) [Zn complex]
SI (selectivity index), HSF [1]: 1.00
IC50 (HEPG2) [2, 6]: 32.35 µg/mL
IC50 (MDA) [3, 7]: 89.12 µg/mL

CC(=O)[O-].CC(=O)[O-].[Cd+2].[Cd+2].[O-]c1ccc2ccccc2c1C=NN=C(O)Cc1ccccc1.[O-]c1ccc2ccccc2c1C=NN=C(O)Cc1ccccc1 [Cd complex]
IC50 (HSF) [1, 8]: 5.24 µg/mL
SI (selectivity index), HSF [1]: 1.00
IC50 (HCT119) [4, 9]: 0.329 µg/mL
SI (selectivity index), HCT119 [4]: 15.93
IC50 (HEPG2) [2, 6]: 4.16 µg/mL
SI (selectivity index), HEPG2 [2]: 1.26
SI (selectivity index), MDA [3]: 0.20
IC50 (MDA) [3, 7]: 25.7 µg/mL
IC50 (A549) [5, 10]: 56.23 µg/mL
SI (selectivity index), A549 [5]: 0.09

O=C(Cc1ccccc1)NN=Cc1c(O)ccc2ccccc12 [H2L, Nʹ-((2-hydroxynaphthalen-1-yl)methylene)-2-phenylacetohydrazide]
IC50 ([1]; Homo sapiens, Skin fibroblast, HSF normal skin fibroblasts, MTT, 48 h): 91.2 µg/mL (≈ 300 µM)
SI (selectivity index), HSF [1]: 1.00
IC50 ([4]; Homo sapiens, HCT-116, HCT119 colorectal cancer cells (HCT116 in abstract), MTT, 48 h): 285 µg/mL (≈ 936 µM)
SI (selectivity index), HCT119 [4]: 0.32
IC50 ([2]; Homo sapiens, HEPG2 liver carcinoma cells, MTT, 48 h): 31.6 µg/mL (≈ 104 µM)
SI (selectivity index), HEPG2 [2]: 2.88
IC50 ([3]; Homo sapiens, MDA triple-negative breast cancer cells, MTT, 48 h): 25.1 µg/mL (≈ 82.5 µM)
SI (selectivity index), MDA [3]: 3.63
IC50 ([5]; Homo sapiens, A549 lung cancer cells, MTT, 48 h): 25.1 µg/mL (≈ 82.5 µM)
SI (selectivity index), A549 [5]: 3.63

N.N.[Cl][Pt][Cl] [Cisplatin, reference compound]
IC50 (HSF) [1, 8]: 11.07 µg/mL
SI (selectivity index), HSF [1]: 1.00
IC50 (HCT119) [4, 9]: 2.25 µg/mL
SI (selectivity index), HCT119 [4]: 4.92
IC50 (HEPG2) [2, 6]: 3.42 µg/mL
SI (selectivity index), HEPG2 [2]: 3.24
SI (selectivity index), MDA [3]: 3.45
IC50 (MDA) [3, 7]: 3.21 µg/mL
IC50 (A549) [5, 10]: 2.73 µg/mL
SI (selectivity index), A549 [5]: 4.05

O=C(Cc1ccccc1)NN=Cc1c([O-])ccc2ccccc12.O=C(Cc1ccccc1)NN=Cc1c([O-])ccc2ccccc12.[Fe+2] [Fe complex]
IC50 (HSF) [1, 8]: 15.84 µg/mL
SI (selectivity index), HSF [1]: 1.00
IC50 (HCT119) [4, 9]: 64.01 µg/mL
SI (selectivity index), HCT119 [4]: 0.25
IC50 (HEPG2) [2, 6]: 40.73 µg/mL
SI (selectivity index), HEPG2 [2]: 0.39
SI (selectivity index), MDA [3]: 2.09
IC50 (MDA) [3, 7]: 7.58 µg/mL
IC50 (A549) [5, 10]: 95.49 µg/mL
SI (selectivity index), A549 [5]: 0.17
